Laboratory results reported in ChEMBL document CHEMBL1201862, “PubChem BioAssay data set” (2004).
The source made the active and inactive calls.

Experiments:
[1] = target: T1, Orexin/Hypocretin receptor type 1 (Homo sapiens, UniProt O43613); assay: Homogeneous Time Resolved Fluorescence (HTRF)-based cell-based high throughput dose response assay for antagonists of the orexin 1 receptor (OX1R; HCRTR1). [Related pubchem assays (depositor defined):AID434989, AID435008, AID463079, AID485270, AID492963, AID492964, AID492965, AID493232, AID504717, AID504718]; type: functional
T1 sequence (O43613 whole entry): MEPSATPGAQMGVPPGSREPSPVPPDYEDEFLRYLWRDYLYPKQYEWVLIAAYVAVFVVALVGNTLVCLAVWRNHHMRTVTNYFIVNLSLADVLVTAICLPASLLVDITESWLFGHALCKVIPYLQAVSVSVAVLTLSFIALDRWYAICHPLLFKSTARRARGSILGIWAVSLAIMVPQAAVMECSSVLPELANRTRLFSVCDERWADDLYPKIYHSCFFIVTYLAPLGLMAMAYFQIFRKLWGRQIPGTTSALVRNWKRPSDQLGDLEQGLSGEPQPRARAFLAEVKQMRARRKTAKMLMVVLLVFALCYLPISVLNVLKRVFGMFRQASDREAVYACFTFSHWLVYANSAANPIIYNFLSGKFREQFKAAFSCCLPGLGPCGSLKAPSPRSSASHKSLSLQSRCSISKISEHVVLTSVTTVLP

[2] = (§1) Counterscreen for antagonists of the orexin 1 receptor (OX1R; HCRTR1): Fluorescence-based cell-based high throughput dose response assay to identify antagonists of the parental CHO cell line. [Related pubchem assays (depositor defined):AID434989, AID435008, AID463079, AID485270, AID492963, AID492964, AID492965, AID493232, AID504699, AID504701]; type: functional
CHO-K1 = assay: as §1, with “Homogeneous time resolved fluorescence (HTRF)-based” for “Fluorescence-based”, “cell-based” for “cell-based high throughput”, “CHO-K1” for “CHO”; type: functional; settings: Cricetulus griseus;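 note: potency for inhibition of ATP-stimulated IP1 production as antagonists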
[3] = target: T1, Orexin/Hypocretin receptor type 1; assay: Fluorescence-based cell-based high throughput dose response assay for antagonists of the orexin 1 receptor (OX1R; HCRTR1). [Related pubchem assays (depositor defined):AID434989, AID435008, AID463079, AID485270, AID492963, AID492964, AID492965, AID493232, AID504717, AID504718]; type: functional
Nonstructural protein 1 = Nonstructural protein 1 (Influenza A virus, UniProt Q194T2); type: functional, Influenza A virus (A/California/07/2009(H1N1))
Exodeoxyribonuclease V = Exodeoxyribonuclease V (Escherichia coli (strain K12), UniProt P04993+P07648+P08394); assay: RecBCD inhibition via phage-restricted bacterial growth – absorbance, V66 E. coli, mutant T4 phage, counter-screen for AddAB inhibitor project, dose response (AID 492957); type: functional, cell-based, Escherichia coli str. K-12 substr. MG1655
INS1 = assay: INS-1E survival protection against cytokine death – cell-based, luminescence, retest, dose response (AID 449756); type: functional; settings: Rattus norvegicus;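 note: cell death triggered by IL-1 beta plus TNF-alpha plus IFN-gamma mixture; protective hits raise ATP signal compared with cytokine alone wells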
BJ = assay: growth inhibition of engineered Ras-driven BJ cells – cell-based, alamar blue fluorescence, cherrypicked samples, dose response (AID 2631); type: functional; settings: Homo sapiens;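 note: confirmatory dose-response assay in RAS-dependent BJ fibroblasts engineered with TERT, LT and ST, with cytotoxicity read by fluorescence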
[4] = Luminescence Cell-Based Dose Retest to Confirm Inhibitors of Cancer Stem Cells. [Related pubchem assays (depositor defined):AID2717, AID2721]; type: functional; settings: Homo sapiens
[5] = Counterscreen for AddAB inhibitors: absorbance-based bacterial cell-based high throughput dose response assay for inhibitors of bacterial viability. [Related pubchem assays (depositor defined):AID435030, AID449728, AID449731, AID488942, AID488955, AID488956]; type: functional
[6] = MIN6 cell viability loss – mouse insulinoma, cytotoxicity control, dose response (AID 2122); type: functional;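 note: confirmatory high-throughput counterscreen run to flag cytotoxic compounds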
[7] = decrease of insulin promoter-GFP reporter – imaging, high-content screening, mouse beta cells (AID 1628); type: functional; settings: MIN6
HEK293 [8] = assay: cells; settings: Homo sapiens
HEK293 [9] = assay: cells; settings: Homo sapiens; remark: listed apart in the source

Chain of Nonstructural protein 1 (Q194T2 whole entry): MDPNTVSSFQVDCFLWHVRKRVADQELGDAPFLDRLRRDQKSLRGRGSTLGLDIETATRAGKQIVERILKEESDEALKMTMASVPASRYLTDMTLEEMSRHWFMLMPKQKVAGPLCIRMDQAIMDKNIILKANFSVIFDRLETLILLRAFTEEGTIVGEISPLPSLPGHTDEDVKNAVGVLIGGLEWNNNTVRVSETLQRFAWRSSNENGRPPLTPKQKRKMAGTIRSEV
Chain of Exodeoxyribonuclease V (P04993 whole entry): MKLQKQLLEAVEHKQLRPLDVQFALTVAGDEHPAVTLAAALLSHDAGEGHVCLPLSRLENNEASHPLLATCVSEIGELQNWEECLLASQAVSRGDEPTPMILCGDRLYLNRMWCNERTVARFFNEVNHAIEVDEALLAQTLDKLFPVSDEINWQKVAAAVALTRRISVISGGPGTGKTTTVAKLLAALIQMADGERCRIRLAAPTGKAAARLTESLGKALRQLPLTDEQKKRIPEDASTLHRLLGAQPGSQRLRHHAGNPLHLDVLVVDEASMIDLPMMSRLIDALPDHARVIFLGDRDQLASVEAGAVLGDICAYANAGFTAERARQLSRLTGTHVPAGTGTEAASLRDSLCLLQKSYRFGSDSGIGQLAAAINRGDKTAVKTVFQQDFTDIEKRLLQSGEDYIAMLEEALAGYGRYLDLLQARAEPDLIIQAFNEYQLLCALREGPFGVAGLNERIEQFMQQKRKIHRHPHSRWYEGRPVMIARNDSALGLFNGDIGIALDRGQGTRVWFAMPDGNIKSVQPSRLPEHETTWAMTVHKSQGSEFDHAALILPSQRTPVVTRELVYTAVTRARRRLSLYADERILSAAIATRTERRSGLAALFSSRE
Chain of Exodeoxyribonuclease V (P07648 whole entry): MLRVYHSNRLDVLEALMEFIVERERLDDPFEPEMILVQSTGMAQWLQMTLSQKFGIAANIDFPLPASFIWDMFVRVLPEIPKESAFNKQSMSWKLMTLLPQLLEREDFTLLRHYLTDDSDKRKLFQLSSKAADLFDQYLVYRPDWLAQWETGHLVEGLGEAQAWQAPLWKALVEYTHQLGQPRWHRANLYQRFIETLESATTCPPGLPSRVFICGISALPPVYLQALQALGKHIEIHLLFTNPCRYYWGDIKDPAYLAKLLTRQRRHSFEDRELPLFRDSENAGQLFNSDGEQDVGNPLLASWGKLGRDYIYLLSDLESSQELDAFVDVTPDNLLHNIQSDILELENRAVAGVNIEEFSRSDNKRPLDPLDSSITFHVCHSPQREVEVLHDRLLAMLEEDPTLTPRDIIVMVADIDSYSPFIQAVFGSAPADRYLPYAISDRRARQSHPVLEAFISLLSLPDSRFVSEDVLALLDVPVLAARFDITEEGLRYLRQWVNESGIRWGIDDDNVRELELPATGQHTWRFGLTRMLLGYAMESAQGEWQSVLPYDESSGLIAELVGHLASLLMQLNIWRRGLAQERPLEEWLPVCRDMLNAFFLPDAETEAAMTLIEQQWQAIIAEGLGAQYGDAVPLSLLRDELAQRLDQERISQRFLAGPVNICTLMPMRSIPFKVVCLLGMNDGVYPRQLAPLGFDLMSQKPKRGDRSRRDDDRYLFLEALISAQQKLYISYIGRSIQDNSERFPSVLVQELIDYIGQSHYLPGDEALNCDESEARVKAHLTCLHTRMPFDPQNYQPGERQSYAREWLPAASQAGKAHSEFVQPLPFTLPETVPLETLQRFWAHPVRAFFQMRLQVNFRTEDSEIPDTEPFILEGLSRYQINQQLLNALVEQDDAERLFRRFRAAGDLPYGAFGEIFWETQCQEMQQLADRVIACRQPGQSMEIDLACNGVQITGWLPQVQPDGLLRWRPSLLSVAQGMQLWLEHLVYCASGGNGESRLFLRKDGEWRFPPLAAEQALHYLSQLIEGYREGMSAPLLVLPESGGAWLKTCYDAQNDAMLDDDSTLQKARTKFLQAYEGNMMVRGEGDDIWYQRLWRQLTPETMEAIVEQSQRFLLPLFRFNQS
Chain of Exodeoxyribonuclease V (P08394 whole entry): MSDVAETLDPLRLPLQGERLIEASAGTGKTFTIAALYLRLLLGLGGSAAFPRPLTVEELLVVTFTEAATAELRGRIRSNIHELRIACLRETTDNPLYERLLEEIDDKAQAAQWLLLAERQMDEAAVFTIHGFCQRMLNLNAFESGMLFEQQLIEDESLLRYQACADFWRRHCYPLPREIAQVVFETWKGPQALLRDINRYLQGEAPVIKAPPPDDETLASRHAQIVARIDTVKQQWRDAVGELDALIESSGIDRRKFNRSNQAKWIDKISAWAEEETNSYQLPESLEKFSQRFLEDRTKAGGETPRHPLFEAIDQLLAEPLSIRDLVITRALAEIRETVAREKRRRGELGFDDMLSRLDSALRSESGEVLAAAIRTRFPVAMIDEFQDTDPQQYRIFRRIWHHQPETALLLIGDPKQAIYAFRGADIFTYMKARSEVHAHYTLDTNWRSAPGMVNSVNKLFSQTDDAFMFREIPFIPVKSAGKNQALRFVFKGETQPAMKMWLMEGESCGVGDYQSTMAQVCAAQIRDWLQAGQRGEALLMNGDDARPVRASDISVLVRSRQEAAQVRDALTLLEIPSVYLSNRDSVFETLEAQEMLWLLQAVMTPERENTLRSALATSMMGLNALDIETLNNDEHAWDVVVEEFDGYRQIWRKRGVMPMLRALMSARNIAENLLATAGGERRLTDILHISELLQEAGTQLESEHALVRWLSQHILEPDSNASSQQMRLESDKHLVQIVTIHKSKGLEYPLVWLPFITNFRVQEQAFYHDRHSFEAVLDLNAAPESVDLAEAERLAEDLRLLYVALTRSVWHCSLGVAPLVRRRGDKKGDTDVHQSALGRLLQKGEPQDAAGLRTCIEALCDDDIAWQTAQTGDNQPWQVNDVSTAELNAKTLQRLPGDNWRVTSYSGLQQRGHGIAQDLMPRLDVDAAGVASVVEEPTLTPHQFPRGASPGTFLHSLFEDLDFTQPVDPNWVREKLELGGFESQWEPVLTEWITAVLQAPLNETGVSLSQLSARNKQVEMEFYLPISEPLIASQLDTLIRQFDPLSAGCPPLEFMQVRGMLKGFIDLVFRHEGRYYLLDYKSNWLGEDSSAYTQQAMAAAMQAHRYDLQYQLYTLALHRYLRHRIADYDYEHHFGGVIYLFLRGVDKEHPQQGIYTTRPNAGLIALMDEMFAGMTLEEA

Cc1ccc(O)c(NC(=O)c2cc(-c3ccccc3Cl)on2)c1
IC50 [1]: 7.23 µM (active)
IC50 [2]: > 49.8 µM (inactive)
IC50 (CHO-K1): > 66.3 µM (inactive)
IC50 [3]: > 49.8 µM (inactive)

COc1cccc(/C=N/Nc2ncnc(Cl)c2N)c1O
IC50 (Nonstructural protein 1): 3.65 µM (active)
IC50 (Exodeoxyribonuclease V): > 119 µM (inactive)
AC50 (INS1): 1.02 µM (active)
EC50 (BJ): 1.27 µM (inconclusive)
AC50 [4]: 2.96 µM (active)
IC50 [5]: > 119 µM (inactive)

Cc1nn(C)c(C)c1CNC(=O)c1cc2n(n1)C(C(F)(F)F)CC(c1cccs1)N2 (centres undefined)
IC50 [6]: 1.11 µM (active)
IC50 [7]: 1.94 µM (active)

CCCCC(=O)NC(=S)Nc1cccc(Cl)c1N1CCCCC1
EC50 (HEK293 [8]): > 59.7 µM (inactive)
EC50 (HEK293 [9]): > 59.7 µM (inactive)
